Active and inactive are the calls of the source. The calls are words filed in the database; no cut-off is given here.
Columns and labels:
4T1 = experiment: Antiproliferative activity against mouse 4T1 cells assessed as reduction in cell viability incubated for 2 days by MTT assay; assay type: functional, cell-based; conditions: 4T1, 48 h
MCF7 [1] = experiment: Antiproliferative activity against human MCF7 cells assessed as reduction in cell viability incubated for 2 days by MTT assay; assay type: functional, cell-based; conditions: MCF7, 48 h
A549 = experiment: Antiproliferative activity against human A549 cells assessed as reduction in cell viability incubated for 2 days by MTT assay; assay type: functional, cell-based; conditions: A549, 48 h
U-87 MG = experiment: Antiproliferative activity against human U-87 MG cells assessed as reduction in cell viability incubated for 2 days by MTT assay; assay type: functional, cell-based, U-87MG ATCC; conditions: 48 h
MIA PaCa-2 = experiment: Antiproliferative activity against human MIA PaCa-2 cells assessed as reduction in cell viability incubated for 2 days by MTT assay; assay type: functional, cell-based; conditions: MIA PaCa-2, 48 h
[2] = Cytotoxicity against human L02 cells assessed as reduction in cell viability incubated for 2 days by MTT assay; assay type: toxicity, cell-based
MCF7 [3] = experiment: Inhibition of cell migration in human MCF7 cells assessed as reduction in wound healing index at 0.625 uM measured after 72 hrs by scratch assay; assay type: functional, cell-based
MCF7 [4] = experiment: Induction of apoptosis in human MCF7 cells assessed as early apoptotic cells at 0.62 uM incubated for 48 hrs by Annexin V-FITC/PI staining based flow cytometric analysis (reference value: 6.33 %); assay type: functional
MCF7 [5] = experiment: Induction of apoptosis in human MCF7 cells assessed as necrotic cells at 1.25 uM incubated for 48 hrs by Annexin V-FITC/PI staining based flow cytometric analysis (reference value: 1.16 %); assay type: functional
MCF7 [6] = experiment: Induction of apoptosis in human MCF7 cells assessed as early apoptotic cells at 2.5 uM incubated for 48 hrs by Annexin V-FITC/PI staining based flow cytometric analysis (reference value: 6.33 %); assay type: functional
MCF7 [7] = experiment: Induction of apoptosis in human MCF7 cells assessed as necrotic cells at 2.5 uM incubated for 48 hrs by Annexin V-FITC/PI staining based flow cytometric analysis (reference value: 1.16 %); assay type: functional
MCF7 [8] = experiment: Induction of cell cycle arrest in human MCF7 cells assessed as accumulation of cells at G2/M phase cells at 5 uM incubated for 24 hrs by PI staining based flow cytometric analysis (reference value: 10.2 %); assay type: functional
MCF7 [9] = experiment: Induction of cell cycle arrest in human MCF7 cells assessed as decrease in G0/G1 phase cells at 5 uM incubated for 24 hrs by PI staining based flow cytometric analysis; assay type: functional
Mitochondrial membrane = experiment: Induction of mitochondrial membrane potential loss in human MCF7 cells assessed as increase in green fluorescence at 10 uM incubated for 24 hrs by JC-1 staining based automated microscopic immunofluorescence analysis; assay type: cell membranes
MCF7 [10] = experiment: Induction of morphological changes in human MCF7 cells assessed as cell membrane blebbing at 10 uM measured after 6 hrs by bright field microscopic; assay type: functional, cell-based
MCF7 [11] = experiment: Induction of DNA double-strand breaks in human MCF7 cells assessed as increase in gamma-H2AX expression incubated for 24 hrs by Western blotting; assay type: functional, cell-based
[12] = Acute toxicity in BALB/c nu/nu mouse assessed as survival rate at 110 mg/kg, ip administered for 7 days relative to control; assay type: organism-based; conditions: in vivo, time 7 day
MCF7 [13] = experiment: Antitumor activity against human MCF7 cells xenografted in BALB/C-nu/nu mouse model assessed as decrease in tumor growth at 20 to 30 mg/kg, iv administered every other day for 15 days; assay type: functional, organism-based; conditions: dose 20-30 mg/kg, time 15.0 day
MCF7 [14] = experiment: Antitumor activity against human MCF7 cells xenografted in BALB/C-nu/nu mouse model assessed as decrease in tumor volume at 30 mg/kg, iv administered every other day for 15 days relative to control; assay type: functional; set-up: scale not given: the % may be the effect or the level left; conditions: time 15 day
[15] = Toxicity in BALB/C-nu/nu mouse xenografted with human MCF7 cells assessed as histopathological lesions in liver at 20 to 30 mg/kg, iv administered every other day for 15 days by H and E staining based analysis; assay type: organism-based; conditions: in vivo, 360 h, dose 20-30 mg/kg, time 15 day
[16] = Toxicity in BALB/C-nu/nu mouse xenografted with human MCF7 cells assessed as histopathological lesions in lung at 20 to 30 mg/kg, iv administered every other day for 15 days by H and E staining based analysis; assay type: organism-based; conditions: in vivo, 360 h, dose 20-30 mg/kg, time 15 day
[17] = Toxicity in BALB/C-nu/nu mouse xenografted with human MCF7 cells assessed as histopathological lesions in kidney at 20 to 30 mg/kg, iv administered every other day for 15 days by H and E staining based analysis; assay type: organism-based; conditions: in vivo, 360 h, dose 20-30 mg/kg, time 15 day
[18] = target: T1, Far upstream element-binding protein 2 (Homo sapiens) (UniProt Q92945); experiment: Binding affinity to recombinant full-length KSRP (unknown origin) by SPR analysis
T1 sequence (whole entry): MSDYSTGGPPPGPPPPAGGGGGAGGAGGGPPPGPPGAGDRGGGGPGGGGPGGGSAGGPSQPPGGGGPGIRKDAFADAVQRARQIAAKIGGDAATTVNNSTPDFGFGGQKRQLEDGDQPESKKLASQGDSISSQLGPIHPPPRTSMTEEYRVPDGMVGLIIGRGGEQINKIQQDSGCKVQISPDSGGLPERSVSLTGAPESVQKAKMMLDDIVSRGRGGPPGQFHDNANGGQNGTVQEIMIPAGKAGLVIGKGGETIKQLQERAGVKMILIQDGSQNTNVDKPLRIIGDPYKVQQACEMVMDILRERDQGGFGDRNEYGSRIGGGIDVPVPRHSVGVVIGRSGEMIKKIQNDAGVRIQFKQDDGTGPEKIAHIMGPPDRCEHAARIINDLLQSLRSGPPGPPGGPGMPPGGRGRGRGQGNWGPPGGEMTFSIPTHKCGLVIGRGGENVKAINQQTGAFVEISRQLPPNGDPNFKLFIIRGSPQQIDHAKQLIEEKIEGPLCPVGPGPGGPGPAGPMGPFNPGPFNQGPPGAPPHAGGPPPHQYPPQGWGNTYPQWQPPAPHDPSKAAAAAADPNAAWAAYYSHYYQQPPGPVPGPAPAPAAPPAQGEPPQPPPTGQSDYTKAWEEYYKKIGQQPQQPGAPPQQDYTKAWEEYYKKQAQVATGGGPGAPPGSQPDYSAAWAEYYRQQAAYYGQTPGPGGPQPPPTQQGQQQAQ

Q: Which results are given for `CN(CCO)S(=O)(=O)c1ccc(-n2ncc(Cl)c(Cl)c2=O)cc1`?
A: IC50 (4T1): 1230 nM; IC50 (MCF7 [1]): 3100 nM; IC50 (A549): 2050 nM; IC50 (U-87 MG): 400 nM; IC50 (MIA PaCa-2): 360 nM; IC50 at 2 days [2]: 8340 nM; inhibition (MCF7 [3]): Active; Activity (MCF7 [4]): 7.62%; Activity (MCF7 [5]): 1.26%; Activity (MCF7 [6]): 26.7%; Activity (MCF7 [7]): 2.77%; Activity (MCF7 [8]): 19.9%; Activity (MCF7 [9]): Active; Activity (Mitochondrial membrane): Active; Activity (MCF7 [10]): Active; Activity (MCF7 [11]): Dose-Dependent Effect; survival at 168 h [12]: 20%; Activity (MCF7 [13]): Active; Activity (MCF7 [14]): 61.6%; Activity [15]: Non-Toxic; Activity [16]: Non-Toxic; Activity [17]: Non-Toxic; Activity [18]: Dose-Dependent Effect

From ChEMBL document CHEMBL6127035, “Novel pyridazinone derivatives bind to KSRP: Synthesis, anti-tumor biological evaluations and modelling insights” (Eur J Med Chem, 2024)
